{"source": "patent US8455550B2", "about": "“Derivatives of aminocyclobutane or aminocyclobutene, their method of preparation and their use as medical products” (Pierre Fabre Medicament, priority 2009, dated 2013)", "key": {"Male Sprague Dawley rats [1]": {"system": "Male Sprague Dawley rats", "test": "Forced swimming test, antidepressant activity", "type": "in vivo, rat", "details": "40 mg/Kg ip, single administration 30 min before test; 5 min observation; FIG. 1", "description": "The antidepressant activity of the compounds of the invention was evidenced by the forced swimming test in rats (Eur. J. Pharmacol. 1978, 47, 379). This model is widely used since it is predictive of antidepressant activity in man.\nThe rats (Male Sprague Dawley rats (ICO: OFA SD [IOPS], Iffa Credo, France), are placed in a cylinder (height 45 cm and diameter 20 cm) filled with water at 25° C.±0.5 up to a height of 17 cm. This height allows the rats to swim or float without their paws touching the bottom of the cylinder. 24 h before the test day, the rats are placed in the cylinder for 15 min, after which time they no longer attempt to escape and remain immobile. On the test day, the animals are put back in the cylinder and the duration of immobility of the animal is measured and monitored using audiovisual recording for 5 min. The products of the invention are administered via ip route 30 min before the test. A rat is considered to be immobile when it allows itself to float and only makes small movements to remain on the surface."}, "Male Sprague Dawley rats [2]": {"system": "Male Sprague Dawley rats", "test": "Formaldehyde test, analgesic activity, late phase", "type": "in vivo, rat", "details": "for Paw licking Score observed at 40 mg/Kg / Paw lifting Score observed at 40 mg/Kg: 40 mg/Kg ip 15 min before formaldehyde 2.5%, late phase 22.5-27.5 min, maximum score 10", "description": "The analgesic activity of the formula (1) compounds and of milnacipran, chosen as reference compound, was determined using a conventional pain module in which formaldehyde is injected to cause a painful sensation in animals (Eur. J. Pharmacol. 2001, 421, 109). The rats (Male Sprague Dawley rats (ICO: OFA SD [IOPS], Iffa Credo, France) are placed in observation boxes in Plexiglas above an angled mirror to facilitate observation of their hind paws. After thirty minutes habituation, the animals are given an injection of formaldehyde diluted to 2.5% on the plantar surface of the right hind paw. The injection of formaldehyde produces behavioural responses which occur in two phases: • an early phase, 0 to 5 min after injection of formaldehyde, corresponding to stimulation of the receptors specialized in the transmission of nociceptive stimuli. • a late phase which occurs between 20 and 30 min after injection. This phase corresponds to the stimulation of receptors by inflammatory mediators and/or to hyperexcitability of the dorsal horn induced during the first phase. This later phase therefore involves central sensitization and causes pain more representative of neuropathic pain compared with the pain which occurs during the first phase. On this account, only the results obtained in this later phase are taken into consideration in the present application. To study the compounds of the invention, we selected two expressions of painful behaviour (paw licking, lifting of injected paw) and chose as observation period the period which corresponds to the late phase (i.e. 22.5-27.5 min). During this 5 min phase, the animals are observed every 30 s and the following behaviours are recorded: licking or non-licking of the injected hind paw and lifting or not of the injected hind paw. Ten observations give a maximum score of 10 for each parameter. The products of the invention are given via intra-peritoneal route 15 min before the injection of formaldehyde."}, "adult rat": {"system": "adult rat", "test": "Ultrasonic vocalizations (USV) test, antistress/anxiolytic activity", "type": "in vivo", "details": "22 kHz vocalizations", "description": "Antistress/anxiolytic activity was determined on a conventional model using ultrasonic vocalizations (USVs) emitted by an adult rat when subjected to stress (Eur. J. Pharmacol. 2003, 463, 133).\nThe experiments were conducted in standard operative cages (250×320×250 mm) insulated from noise and light. The floor of the cages is covered with a grid in stainless steel and connected to an electric shock generator delivering a fixed intensity of 0.4 mA. The device is provided on one of its walls with a light source (2 lux). The ULTRAVOX system (Noldus, Wageningen, Pays Bas) is used to record ultrasonic vocalizations at a frequency defined by an ultrasound detector, an audio-filter box and acquisition software. For this experiment, the capture frequency was set at 22 kHz. The software allows the recording of all vocalizations of 22 kHz lasting a time of more 100 ms emitted by the animals. The test starts with a habituation session of 11 min 25 s, during which the animals are individually placed in the operative device without being subjected to conditioning (neither light nor electric shock).\nDuring a second phase, the animals are subjected to a conditioning phase of 3 sessions given over 3 consecutive days. […]"}}, "data": [{"compound": "CCN(CC)C(=O)[C@@]1(c2ccccc2)C[C@H]1CN", "note": "(racemic) [milnacipran, cis-(±)-N,N-diethyl-(1-phenyl-2-aminomethyl)-cyclopropanecarboxamide, reference compound]", "values": [{"measurement": "Duration of immobility (effect in words)", "setting": "Male Sprague Dawley rats [1]", "result": "no effect"}, {"measurement": "Paw licking Score observed at 40 mg/Kg", "setting": "Male Sprague Dawley rats [2]", "result": "2.0 ± 0.8"}, {"measurement": "Paw lifting Score observed at 40 mg/Kg", "setting": "Male Sprague Dawley rats [2]", "result": "6.3 ± 1.4"}, {"measurement": "Duration of USVs minimum significant dose (MSD)", "setting": "adult rat", "result": 10, "unit": "mg/kg"}]}, {"compound": "(±)-cis-N,N-diethyl (1-phenyl-2-aminomethyl)-cyclobutanecarboxamide [Compound 1a]", "values": [{"measurement": "Duration of immobility (effect in words)", "setting": "Male Sprague Dawley rats [1]", "result": "significantly decreasing the duration of immobility"}, {"measurement": "Paw licking Score observed at 40 mg/Kg", "setting": "Male Sprague Dawley rats [2]", "result": "1.0 ± 0.4"}, {"measurement": "Paw lifting Score observed at 40 mg/Kg", "setting": "Male Sprague Dawley rats [2]", "result": "3.7 ± 1.1"}, {"measurement": "Paw lifting and paw licking in late phase (effect in words)", "setting": "Male Sprague Dawley rats [2]; ip, late phase of formaldehyde test", "result": "significantly reduces both paw lifting and paw licking"}, {"measurement": "Duration of USVs minimum significant dose (MSD)", "setting": "adult rat", "result": 10, "unit": "mg/kg"}]}]}
